Test results taken from US20130071892A1, “PROCESS FOR PRODUCTION OF POLYHYDROXYALKANOIC ACID USING GENETICALLY MODIFIED MICROORGANISM HAVING ENOYL-CoA HYDRATASE GENE INTRODUCED THEREIN” (TOKYO INSTITUTE OF TECHNOLOGY, priority 2010, published 2013).

Experiments:
[1] = molecular target: T1, C. necator R form-specific enoyl-CoA hydratase PhaJ1 (phaJ1 gene, H16_A1070, SEQ ID NO: 2), wild type, recombinant N-terminal His tag (Cupriavidus necator, UniProt Q0KCR0); assay: enoyl-CoA hydratase activity, absorbance decrease at 263 nm, Lineweaver-Burk analysis; format: biochemical, Cupriavidus necator H16; conditions: 100 mM Tris-HCl buffer (pH 7.8)
T1 sequence (Q0KCR0 1-158): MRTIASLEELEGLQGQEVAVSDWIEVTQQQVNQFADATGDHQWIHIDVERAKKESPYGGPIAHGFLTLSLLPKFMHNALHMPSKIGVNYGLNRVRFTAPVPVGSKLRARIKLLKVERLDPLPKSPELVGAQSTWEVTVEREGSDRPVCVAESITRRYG
Text: (§1) By homology search with a known R form-specific enoyl CoA hydratase, phaJ1 (SEQ ID NO: 2), phaJ2 (SEQ ID NO: 3), and phaJ3 were identified as a presumptive R form-specific enoyl CoA hydratase gene. Then, using the genomic DNA of C. necator as the template, phaJ1 was amplified by a PCR method with the oligonucleotides of the following sequence 19 and sequence 20 as the primers. Similarly, phaJ2 was amplified by a PCR method with the oligonucleotides of sequence 21 and sequence 22 as the primers. Furthermore, phaJ3 was amplified by a PCR method with the oligonucleotides of sequence 23 and sequence 24 as the primers. Using the KOD Plus (manufactured by TOYOBO) for PCR, a cycle comprising 20 seconds at 98° C., 15 seconds at 61° C. and 2 minutes at 68° C. was repeated for 30 cycles.
(§2) Each fragment of phaJ1, phaJ2 and phaJ3 that were amplified and cleaved with NdeI and XhoI in Example 16 was inserted into an expression plasmid pCOLDII (manufactured by Takara-Bio) cleaved with each of NdeI and XhoI. The plasmids obtained were designated as pCOLD-J1, pCOLD-J2 and pCOLD-J3. These expression plasmids have been constructed so as to produce recombinant protein in which a tag sequence (hereinafter referred to as His tag) comprising 6 histidine residues has been added to the amino terminal end. Using pCOLD-J1, pCOLD-J2 and pCOLD-J3, E. coli strain BL21 (DE3) (manufactured by Novagen) was transformed. Each transformant obtained was cultured in 100 mL of LB medium with 100 mg ampicillin at 37° C. for 4 hours, to which isopropyl-thiogalacto-pyranoside (IPTG) was added at a final concentration of 0.5 mM to induce expression, and further culcuted at 15° C. for 24 hours. The cells collected by centrifugation were resuspended in 20 mM sodium phosphate buffer (pH 7.4) containing 30 mM imidazole and 500 mM NaCl, sonic-disrupted and centrifuged to obtain soluble protein fractions.
(§3) This soluble protein fraction was filtered with a filter having a pore size of 0.22 μm. Then, this was subjected to the HisTrap FF crude column (1 ml) (manufactured by GE Healthcare) equalized in advance with 20 mM sodium phosphate buffer (pH 7.4) containing 30 mM imidazole and 500 mM NaCl so as to allow the His tag-carrying protein to be adsorbed. Subsequently, by linearly increasing the imidazole concentration from 30 mM to 500 mM, the adsorbed protein was eluted and recovered to prepare purified enzyme.
(§4) Proteins expressed from the three genes, phaJ1, phaJ2 and phaJ3, derived from C. necator are hereinafter referred to as PhaJ1, PhaJ2 and PhaJ3, respectively. For each of purified recombinant protein products produced in E. coli, the activity of enoyl-CoA hydratase when crotonyl-CoA (4 carbons), 2-hexenoyl-CoA (6 carbons) or 2-octenoyl-CoA (8 carbons) was used as the substrate was determined according to the method described in Non-patent document 4. Thus, the purified enzyme was added to 100 mM Tris-HCl buffer (pH 7.8) containing the substrate (a total volume of 400 μl), and reduction in absorbance at 263 nm was measured with a spectrophotometer. At this time, the measured values obtained by varying the substrate concentration were analyzed by the Lineweaver-Burk plot to calculate the Michaelis constant Km, and the maximum velocity Vmax.

[2] = molecular target: C. necator R form-specific enoyl-CoA hydratase PhaJ2 (phaJ2 gene, H16_B0397, SEQ ID NO: 3), wild type, recombinant N-terminal His tag (Cupriavidus necator, UniProt Q0K478); assay: as above; format: biochemical, Cupriavidus necator H16; conditions: 100 mM Tris-HCl buffer (pH 7.8)
Text: as §1, §2, §3, §4

[3] = system: C. necator R form-specific enoyl-CoA hydratase PhaJ3 (phaJ3 gene), wild type, recombinant N-terminal His tag; assay: as above; format: biochemical, Cupriavidus necator H16; conditions: 100 mM Tris-HCl buffer (pH 7.8); for Km: read-out: Michaelis constant Km
Text: as §1, §2, §3, §4

[4] = substrate: C/C=C/C(=O)SCCNC(=O)CCNC(=O)[C@H](O)C(C)(C)COP(=O)(O)OP(=O)(O)OC[C@H]1O[C@@H](n2cnc3c(N)ncnc32)[C@H](O)[C@@H]1OP(=O)(O)O; assay: as above; format: biochemical, Cupriavidus necator H16
Text: as §1, §2, §3, §4

[5] = substrate: CCC/C=C/C(=O)SCCNC(=O)CCNC(=O)[C@H](O)C(C)(C)COP(=O)(O)OP(=O)(O)OC[C@H]1O[C@@H](n2cnc3c(N)ncnc32)[C@H](O)[C@@H]1OP(=O)(O)O; assay: as above; format: biochemical, Cupriavidus necator H16
Text: as §1, §2, §3, §4

[6] = substrate: CCCCC/C=C/C(=O)SCCNC(=O)CCNC(=O)[C@H](O)C(C)(C)COP(=O)(O)OP(=O)(O)OC[C@H]1O[C@@H](n2cnc3c(N)ncnc32)[C@H](O)[C@@H]1OP(=O)(O)O; assay: as above; format: biochemical, Cupriavidus necator H16
Text: as §1, §2, §3, §4

[7] = stereoselectivity of the hydration reaction, coupled with PHA granule-mediated polymerization and DTNB; format: biochemical; conditions: for absorbance at 412 nm: 0.2 mM crotonyl-CoA, 1 mM DTNB, 5 μl PHA granule fraction, 100 mM Tris-HCl pH 7.8, FIG. 4; for stereoselectivity of the hydration reaction: concluded from the CoA-SH release with PHA granule fraction and DTNB
Text: FIG. 4 The result of investigating the stereoselectivity of PhaJ1, PhaJ2 and PhaJ3 by the conjugation of the enoyl-CoA hydratase-mediated hydration reaction and the PHA granules-mediated polymerization reaction. (A) PhaJ1, (B) PhaJ2, and (C) PhaJ3; dark square: purified enzyme added, open triangle: no purified enzyme added.
In the above measurement of enoyl-CoA hydratase activity, no findings can be obtained on stereoselectivity at the addition of water to the double bond. Thus, the stereoselectivity of the hydration reaction by PhaJ1, PhaJ2 and PhaJ3 was investigated as follows. From the cells of C. necator that accumulated PHA, a water-insoluble PHA granule fraction can be prepared, but PHA synthetic synthase is bound to the surface of the PHA granules. This PHA synthase specifically polymerizes (R)-3-hydroxyacyl-CoA and releases CoA-SH. Thus, when both of the PHA granule fraction and 5,5′-dithiobis(2-nitrobenzoic acid) (DTNB) are present in the reaction solution for determining enoyl-CoA hydratase activity, COA-SH released together with the polymerization by PHA synthase reacts with DTNB to produce a yellow dye having a specific absorption at 412 nm, if the specificity of enoyl-CoA hydratase is (R)-form-specific. Conversely, when enoyl-CoA hydratase is (S)-form-specific, no yellow dye is produced.
Measurement was carried out according to the method described in Non-patent document 4. Thus, the PHA granule fraction was prepared from the cells of the C. necator wild type strain (the H16 strain) cultured for 36 hours in 100 ml of a medium containing fructose as a carbon source in a method described in Example 18. The cells were collected by centrifugation from the culture, and suspended in 3 ml of 50 mM Tris-HCl buffer (pH 7.5) followed by sonic-disruption. The supernatant obtained by low-speed centrifugation of the disruption liquid at 1,500×g, 5 min was further subjected to high-speed centrifugation at 15,000×g, 15 min. And the precipitate fraction was suspended in 3 ml of 50 mM Tris-HCl buffer (pH 7.5) to prepare a PHA granule fraction. Then, the purified enzyme was added to 100 mM Tris-HCl buffer (pH 7.8) containing 0.2 mM crotonyl-CoA, 1 mM DTNB and 5 μl PHA granule fraction (a total volume of 400 μl), and an increase in absorbance at 412 nm was measured.

[8] = other: PhaJ1, 100 mM Tris-HCl buffer (pH 7.8)
[9] = other: PhaJ2, 100 mM Tris-HCl buffer (pH 7.8)

## CCC/C=C/C(=O)SCCNC(=O)CCNC(=O)[C@H](O)C(C)(C)COP(=O)(O)OP(=O)(O)OC[C@H]1O[C@@H](n2cnc3c(N)ncnc32)[C@H](O)[C@@H]1OP(=O)(O)O [2-hexenoyl-CoA (C6), 2-hexenoyl-CoA]
[1]
  Maximum velocity Vmax: 7.0 ± 0.5 × 10^2 U mg^−1
[2]
  Maximum velocity Vmax: 2.4 ± 0.3 × 10^3 U mg^−1
[3]
  Maximum velocity Vmax: 1.1 ± 0.1 × 10^2 U mg^−1
  Km: 110 ± 16 µM

## CCCCC/C=C/C(=O)SCCNC(=O)CCNC(=O)[C@H](O)C(C)(C)COP(=O)(O)OP(=O)(O)OC[C@H]1O[C@@H](n2cnc3c(N)ncnc32)[C@H](O)[C@@H]1OP(=O)(O)O [2-oxtenoyl-CoA (C8), 2-octenoyl-CoA]
[1]
  Maximum velocity Vmax: 6.7 ± 0.7 × 10^2 U mg^−1
[2]
  Maximum velocity Vmax: 2.0 ± 0.1 × 10^3 U mg^−1
[3]
  Maximum velocity Vmax: 2.8 ± 0.5 × 10^2 U mg^−1
  Km: 38 ± 12 µM

## C/C=C/C(=O)SCCNC(=O)CCNC(=O)[C@H](O)C(C)(C)COP(=O)(O)OP(=O)(O)OC[C@H]1O[C@@H](n2cnc3c(N)ncnc32)[C@H](O)[C@@H]1OP(=O)(O)O [Crotonyl-CoA (C4), crotonyl-CoA]
[2]
  Maximum velocity Vmax: 1.4 ± 0.1 × 10^2 U mg^−1
[3]
  Maximum velocity Vmax: 1.3 ± 0.2 × 10^1 U mg^−1
  Km: 178 ± 46 µM

B1: C. necator R form-specific enoyl-CoA hydratase PhaJ1 (phaJ1 gene, H16_A1070, SEQ ID NO: 2), wild type, recombinant N-terminal His tag (Cupriavidus necator H16) (protein)
chain: MRTIASLEELEGLQGQEVAVSDWIEVTQQQVNQFADATGDHQWIHIDVERAKKESPYGGPIAHGFLTLSLLPKFMHNALHMPSKIGVNYGLNRVRFTAPVPVGSKLRARIKLLKVERLDPLPKSPELVGAQSTWEVTVEREGSDRPVCVAESITRRYG
[4]; [8]
  Km: 91 ± 5 µM
[5]; [8]
  Km: 41 ± 7 µM
[6]; [8]
  Km: 24 ± 5 µM

B2: PhaJ1: purified His-tagged recombinant protein expressed in E. coli from phaJ1 (SEQ ID NO: 2) of C. necator; (R)-form-specific enoyl-CoA hydratase (protein)
chain: MRTIASLEELEGLQGQEVAVSDWIEVTQQQVNQFADATGDHQWIHIDVERAKKESPYGGPIAHGFLTLSLLPKFMHNALHMPSKIGVNYGLNRVRFTAPVPVGSKLRARIKLLKVERLDPLPKSPELVGAQSTWEVTVEREGSDRPVCVAESITRRYG
modifications: His tag; Cupriavidus necator; Cupriavidus necator strain H16 (R)-form- specific enoyl-CoA hydratase (R-hydratase, phaJ1), H16_A1070
[7]
  absorbance at 412 nm: increase
  stereoselectivity of the hydration reaction: (R)-form-specific

B3: C. necator R form-specific enoyl-CoA hydratase PhaJ2 (phaJ2 gene, H16_B0397, SEQ ID NO: 3), wild type, recombinant N-terminal His tag (Cupriavidus necator H16) (protein)
chain: MKTYENIADLQPLVGEVIGTSEWLALDQARINTFADATGDHQWIHVDVERAKNGPFGAPIAHGFLTLSLLPAFTHSAYRIRNSSTGVNYGLDKVRFPAPVPVDSLLRAQFKLMSYEALENGGAQFKVEMMVERQGGSKPVCIAESILRRFP
[4]; [9]
  Km: 311 ± 15 µM
[5]; [9]
  Km: 77 ± 14 µM
[6]; [9]
  Km: 23 ± 4 µM

B4: PhaJ2: purified His-tagged recombinant protein expressed in E. coli from phaJ2 (SEQ ID NO: 3) of C. necator; (R)-form-specific enoyl-CoA hydratase (protein)
chain: MKTYENIADLQPLVGEVIGTSEWLALDQARINTFADATGDHQWIHVDVERAKNGPFGAPIAHGFLTLSLLPAFTHSAYRIRNSSTGVNYGLDKVRFPAPVPVDSLLRAQFKLMSYEALENGGAQFKVEMMVERQGGSKPVCIAESILRRFP
modifications: His tag; Cupriavidus necator R-hydratase gene (phaJ2); Cupriavidus necator strain H16 (R)-form- specific enoyl-CoA hydratase (R-hydratase, phaJ2), H16_B0397
[7]
  absorbance at 412 nm: increase
  stereoselectivity of the hydration reaction: (R)-form-specific
